Data as given in patent US8163793B2, “Proline derivatives” (Hoffman-La Roche Inc., priority 2009, dated 2012).
Where a name gives a salt, the structure may show the parent alone.

Tests used:
Cathepsin S = Cathepsin S (UniProt P25774); experiment: Cathepsin enzyme inhibition assay (fluorogenic peptide substrate Z-Val-Val-Arg-AMC), Cathepsin S; type: biochemical, human and mouse; details: enzyme 1 nM, substrate 20 μM, pH 6.5; read-out: CatS IC50
How it was run: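 Human or mouse cathepsin S (1 nM) was run in 100 mM potassium phosphate pH 6.5 with 5 mM EDTA, 0.001% Triton X-100 and 5 mM DTT. The rise in AMC fluorescence from cleavage was measured, and IC50 values were calculated by standard methods and expressed in μM.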

Cat L = Cat L (UniProt P07711); experiment: Cathepsin enzyme inhibition assay (fluorogenic peptide substrate Z-Val-Val-Arg-AMC), Cathepsin L; type: biochemical, human and mouse; details: enzyme 1 nM, substrate 20 μM, pH 6.5; read-out: CatL IC50
How it was run: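 Cathepsin L at 1 nM was mixed with compound, then started with 20 μM Z-Val-Val-Arg-AMC in pH 6.5 potassium phosphate with EDTA, Triton X-100 and 5 mM DTT. AMC fluorescence (ex 360/em 465 nm) was followed over 20 min. IC50 is given in μM.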

Compound | IC50 (Cathepsin S) | IC50 (Cat L)
N#CC1(NC(=O)[C@@H]2C[C@@H](S(=O)(=O)c3ccc(-n4ccc5ncnc-5c4)cc3Cl)CN2C(=O)C2(c3ccc(Cl)cc3)CC2)CC1 [Example 350, (2S,4R)-4-(2-Chloro-4-imidazo[4,5-c]pyridin-5-yl-benzenesulfonyl)-1-[1-(4-chloro-phenyl)-cyclopropanecarbonyl]-pyrrolidine-2-carboxylic acid (1-cyano-cyclopropyl)-amide] | 0.06 nM | 260 nM
COc1cccc(-n2nc(C)cc2N2C[C@H](S(=O)(=O)c3ccccc3C(F)(F)F)C[C@H]2C(=O)NC2(C#N)CC2)c1 [Example 333, (2S,4R)-1-[2-(3-Methoxy-phenyl)-5-methyl-2H-pyrazol-3-yl]-4-(2-trifluoromethyl-benzenesulfonyl)-pyrrolidine-2-carboxylic acid (1-cyano-cyclopropyl)-amide] | 1.9 nM | 7980 nM
Cc1cc(Cl)ccc1S(=O)(=O)[C@H]1CN[C@H](C(=O)NC2(C#N)CC2)C1 [Example 50, (2S,4R)-4-(4-Chloro-2-methyl-benzenesulfonyl)-pyrrolidine-2-carboxylic acid (1-cyano-cyclopropyl)-amide Hydrochloride] | 4.4 nM | 8770 nM
Cn1nc(N2C[C@H](S(=O)(=O)c3ccccc3C(F)(F)F)C[C@H]2C(=O)NC2(C#N)CC2)cc1C1CCOCC1 [Example 393, (2S,4R)-1-[1-Methyl-5-(tetrahydro-pyran-4-yl)-1H-pyrazol-3-yl]-4-(2-trifluoromethyl-benzenesulfonyl)-pyrrolidine-2-carboxylic acid (1-cyano-cyclopropyl)-amide] | 3.75 nM | ≥ 25000 nM
N#CC1(NC(=O)[C@@H]2C[C@@H](S(=O)(=O)c3ccc(-n4cccn4)cc3C(F)(F)F)CN2)CC1 [Example 19, (2S,4R)-4-(4-Pyrazol-1-yl-2-trifluoromethyl-benzenesulfonyl)-pyrrolidine-2-carboxylic acid (1-cyano-cyclopropyl)-amide hydrochloride] | 1.3 nM | ≥ 25000 nM
N#CC1(NC(=O)[C@@H]2C[C@@H](S(=O)(=O)c3ccccc3Cl)CN2C(=O)C2(c3ccc(Cl)cc3)CCC2)CC1 [Example 283, (2S,4R)-4-(2-Chloro-benzenesulfonyl)-1-[1-(4-chloro-phenyl)-cyclobutanecarbonyl]-pyrrolidine-2-carboxylic acid (1-cyano-cyclopropyl)-amide] | 0.12 nM | 24 nM
Cc1cccc(-n2nc(C)cc2N2C[C@H](S(=O)(=O)c3ccccc3C(F)(F)F)C[C@H]2C(=O)NC2(C#N)CC2)c1 [Example 276, (2S,4R)-1-(5-Methyl-2-m-tolyl-2H-pyrazol-3-yl)-4-(2-trifluoromethyl-benzenesulfonyl)-pyrrolidine-2-carboxylic acid (1-cyano-cyclopropyl)-amide] | 0.392 nM | 9430 nM
CC(C)(C)OC(=O)N1C[C@H](S(=O)(=O)c2ccccc2OC(F)(F)F)C[C@H]1C(=O)NC1(C#N)CC1 [Example 2, (2S,4R)-2-(1-Cyano-cyclopropylcarbamoyl)-4-(2-trifluoromethoxy-benzenesulfonyl)-pyrrolidine-1-carboxylic acid tert-butyl ester] | 43.5 nM | ≥ 25000 nM
N#CC1(NC(=O)[C@@H]2C[C@@H](S(=O)(=O)c3ccc(OCC(F)(F)F)cc3Cl)CN2C(=O)C2(c3ccc(Cl)cc3)CC2)CC1 [Example 178, (2S,4R)-1-[1-(4-Chloro-phenyl)-cyclopropanecarbonyl]-4-[2-chloro-4-(2,2,2-trifluoro-ethoxy)-benzenesulfonyl]-pyrrolidine-2-carboxylic acid (1-cyano-cyclopropyl)-amide] | 0.16 nM | 36 nM
CN1CCN(c2ccc(S(=O)(=O)[C@@H]3C[C@@H](C(=O)NC4(C#N)CC4)N(C(=O)C4(C(F)(F)F)CC4)C3)c(Cl)c2)CC1 [Example 290, (2S,4R)-4-[2-Chloro-4-(4-methyl-piperazin-1-yl)-benzenesulfonyl]-1-(1-trifluoromethyl-cyclopropanecarbonyl)-pyrrolidine-2-carboxylic acid (1-cyano-cyclopropyl)-amide] | 0.13 nM | 1600 nM
Cc1cc(N2C[C@H](S(=O)(=O)c3ccccc3C(F)(F)F)C[C@@H]2C(=O)NC2(C#N)CC2)n(CC(C)C)n1 [Example 341, (2R,4R)-1-(2-Isobutyl-5-methyl-2H-pyrazol-3-yl)-4-(2-trifluoromethyl-benzenesulfonyl)-pyrrolidine-2-carboxylic acid (1-cyano-cyclopropyl)-amide] | 150 nM | ≥ 25000 nM
N#CC1(NC(=O)[C@@H]2C[C@@H](S(=O)(=O)c3ccccc3C(F)(F)F)CN2c2cc(C3CC3)n[nH]2)CC1 [Example 400, (2S,4R)-1-(5-Cyclopropyl-2H-pyrazol-3-yl)-4-(2-trifluoromethyl-benzenesulfonyl)-pyrrolidine-2-carboxylic acid (1-cyano-cyclopropyl)-amide] | 3.3 nM | ≥ 25000 nM
N#CC1(NC(=O)C2CC(S(=O)(=O)c3ccccc3C(F)(F)F)CN2c2ccccc2-c2ccccc2)CC1 (stereo not drawn) [Example 343, 1-Biphenyl-2-yl-4-(2-trifluoromethyl-benzenesulfonyl)-pyrrolidine-2-carboxylic acid (1-cyano-cyclopropyl)-amide] | 99.3 nM | ≥ 25000 nM
N#CCNC(=O)[C@@H]1C[C@@H](S(=O)(=O)c2ccccc2Cl)CN1C(=O)c1ccccc1 [Example 58, (2S,4R)-1-Benzoyl-4-(2-chloro-benzenesulfonyl)-pyrrolidine-2-carboxylic acid cyanomethyl-amide] | 1.6 nM | 27400 nM
CC1(C(=O)N2C[C@H](S(=O)(=O)c3ccc(-c4ccnc(Cl)c4)cc3C(F)(F)F)C[C@H]2C(=O)NC2(C#N)CC2)CC1 [Example 258, (2S,4R)-4-[4-(2-Chloro-pyridin-4-yl)-2-trifluoromethyl-benzenesulfonyl]-1-(1-methyl-cyclopropanecarbonyl)-pyrrolidine-2-carboxylic acid (1-cyano-cyclopropyl)-amide] | 0.19 nM | 58000 nM
N#CC1(NC(=O)[C@@H]2C[C@@H](S(=O)(=O)c3ccc(N4CCOC4=O)cc3C(F)(F)F)CN2)CC1 [Example 27, (2S,4R)-4-[4-(2-oxo-oxazolidin-3-yl)-2-trifluoromethyl-benzenesulfonyl]-pyrrolidine-2-carboxylic acid (1-cyano-cyclopropyl)-amide hydrochloride] | 2.2 nM | ≥ 25000 nM
CC(=O)N1C[C@H](S(=O)(=O)c2ccc(F)cc2Cl)C[C@H]1C(=O)NC1(C#N)CC1 [Example 134, (2S,4R)-1-Acetyl-4-(2-chloro-4-fluoro-benzenesulfonyl)-pyrrolidine-2-carboxylic acid (1-cyano-cyclopropyl)-amide] | 6.2 nM | ≥ 25000 nM
N#CC1(NC(=O)[C@@H]2C[C@@H](S(=O)(=O)c3ccccc3Cl)CN2C(=O)Oc2ccc(F)cc2)CC1 [Example 99, (2S,4R)-4-(2-Chloro-benzenesulfonyl)-2-(1-cyano-cyclopropylcarbamoyl)-pyrrolidine-1-carboxylic acid 4-fluoro-phenyl Ester] | 2.6 nM | ≥ 25000 nM
